Experimental findings from ChEMBL document CHEMBL1158575, “Glutarimide alkaloids and a terpenoid benzoquinone from Cordia globifera” (J Nat Prod, 2010) are described below.

Active and inactive are the calls of the source. The rule behind the calls is not given here.

Experiment [1] concerns HuCC-A1. The experiment is described as follows: (§1) Cytotoxicity against human HuCCa1 cells MTT assay. In kind it is functional, cell-based.
Experiment [2] deals with MOLT-3. Briefly: Cytotoxicity against human MOLT3 cells XTT assay. In kind it is functional, cell-based.
In experiment [3] the test system is A549. The experiment is described as follows: Cytotoxicity against human A549 cells MTT assay. In kind it is functional, cell-based.
The subject of experiment [4] is RAW264.7. Briefly: Inhibition of superoxide anion radical formation in mouse RAW264.7 cells by xanthine/xanthine oxidase assay. Type of experiment: functional, cell-based.
In experiment [5] the test system is HepG2. The experiment is described as follows: Cytotoxicity against human HepG2 cells MTT assay. Type of experiment: functional, cell-based.
In experiment [6] the test system is HL-60. Briefly: Suppression of TPA-induced superoxide anion generation in differentiated human HL60 cells at 100 uM. Type of experiment: functional.
A short description of experiment [7]: as §1. Type of experiment: functional, cell-based. Conditions: HuCC-A1.

`CC(=O)N[C@H]1CCC(=O)N(CC(=O)c2ccccc2)C1=O` [CORDIARIMIDE A]: the result in experiment [1], in experiment [3] and in experiment [5] was inactive. Moreover, the half-inhibitory concentration (IC50) amounted to 145 µM in experiment [2] and 54.1 µM in experiment [4].
As to `CC(=O)N[C@H]1CCC(=O)N(C[C@H](O)c2ccccc2)C1=O` [CORDIARIMIDE B], the outcome in experiment [1], in experiment [3] and in experiment [5] was inactive. In experiment [6], this molecule gave an Activity of 54%. Besides, the results for the concentration for half-maximal inhibition (IC50) in experiment [2] and in experiment [4] were 44.5 µM and 21.7 µM, respectively.
Regarding `C[C@@]12CC3=C(C[C@H]1[C@]1(C)C[C@@H]1C2)C(=O)C=CC3=O` [GLOBIFERANE], the 50% inhibitory concentration (IC50) was determined as 66 µM in experiment [7], 3.7 µM in experiment [2], 149 µM in experiment [3] and 149 µM in experiment [5].
